Where two headings read alike, the source gives them in different places.
Legend:
[1] = system: leukotriene E4-induced bronchoconstriction; assay: Guinea Pig Bronchoconstriction, In Vivo (Aerosol)
Method: (c) Guinea Pig Bronchoconstriction, In Vivo (Aerosol):
(§1) Male guinea pigs (Hartley strain) weighing 300 to 500 g are anesthetized with urethane (2 g/kg) intraperitoneally and a polyethylene cannula is inserted into the jugular vein for drug administration. Tracheal pressure is recorded from a cannula inserted in the trachea and connected to a Statham pressure transducer. After surgical preparation of the animals, a period of time is allowed for pulmonary functions to stabilize. The test compound is administered according to the following protocol. Propanolol (0.1 mg/kg) is administered intravenously while the animals breathed spontaneously. Five minutes thereafter, the animals are exposed for a five minute period to a 1% (w/v) aerosol solution of test compound (adjusted to an alkaline pH where necessary for drug solubilization) or to distilled water of the appropriate pH (for control purposes). A Monaghan (Model 750) ultrasonic nebulizer is used to administer all test compounds by inhalation. The nebulizer ultrasonic frequency is adjusted to produce particles in the 1-8μ diameter range (average 3μ). Aqueous solutions are prepared fresh and introduced into the chamber of the nebulizer. The output of the nebulizer is made available to the animal by directing a bias flow of aerosol through a y tube connected to the tracheal cannula. At the end of the exposure period, the animals are paralyzed with succinylcholine (1.2 mg/kg, i.v.) and mechanically respirated (Harvard rodent respirator) at 40 breaths/minute and 2.5 cc tidal volume. Animals are then challenged with a maximum constrictory dose of leukotriene E4 delivered intravenously 30 seconds after administration of the succinylcholine.
(§2) The change (cm H2 O) between pre and peak ventilatory pressure readings is averaged for the three control animals and five drug treated animals. The percent inhibition is calculated from the following formula: [formula] When various drug concentrations are tested, the percent inhibition at each concentration is plotted as log concentration (abscissa) versus percent inhibition (ordinate) and the IC50 is determined from linear regression analysis.

[2] = system: leukotriene E4-induced bronchoconstriction; assay: Guinea Pig Bronchoconstriction, In Vivo (Aerosol), duration of action; details: 1% aerosol; time for % inhibition to fall below 40%
Method: as §1, §2
In order to determine the duration of action (doa), the animals are prepared as described above, except that the time between aerosol exposure and challenge with LTE4 is varied. All compounds are administered at a concentration of 1%. Duration of action is calculated from plots of time (abscissa) versus % inhibition (ordinate). The duration of action is defined as the time for the % inhibition to fall below 40%.

[3] = system: SRS-A-induced constriction of the guinea pig ileum; assay: Guinea Pig Ileum, In Vitro (inhibition of SRS-A-induced constriction); details: Cavia porcellus; SRS-A (EC50 dose) challenge, 37° C., atropine and pyrilamine present
Method: (a) Guinea Pig Ileum, In Vitro:
The guinea pig ileum bioassay system has been described by Orange and Austen, Adv. Immunol. […] A 1.5 cm segment is removed from animals weighing 300-400 g and suspended in an organ bath containing 10 ml of Tyrodes solution with 10^-6 M atropine sulfate and 10^-6 M pyrilamine maleate. […] The SRS-A utilized in this screen is obtained by challenging chopped lung fragments from actively sensitized guinea pigs with egg albumin, in vitro. A dose-response curve to SRS-A challenge is established for the ileum. […] The drug concentration which inhibits, by 50%, the SRS-A-induced constriction of the guinea pig ileum is determined.

[4] = system: leukotriene E4-induced bronchoconstriction; assay: Guinea Pig Bronchoconstriction, In Vivo (leukotriene E4 challenge; drug i.v. or oral); details: for Guinea Pig Bronchoconstriction, In Vivo % I, 10 mg/kg I.V.: leukotriene E4 challenge; for inhibition in vivo at 100 mg/kg: Cavia porcellus, po, 100 mg/kg p.o.
Method: (b) Guinea Pig Bronchoconstriction, In Vivo:
Male guinea pigs (Hostley strain) weighing 300 to 450 grams are anesthetized with urethane (2 g/kg) intraperitoneally and a polyethylene cannula is inserted into the jugular vein for intravenous drug administration. Tracheal pressure is recorded from a cannula inserted in the trachea and connected to a Statham pressure transducer. Respiration is paralyzed with succinyl choline (1.2 mg/kg, i.v.) and the animals are mechanically respirated (Howard rodent respirator) at 40 breaths/minute and 2.5 cc tidal volume. Two minutes thereafter, propanolol (0.1 mg/kg, i.v.) is administered. Five minutes later, the animals are pretreated intravenously for 30 seconds (at 10 mg/kg) with test drug or control vehicle. The animals are subsequently challenged with a maximally constrictory dose of leukotriene E4 also administered intravenously. The change (cm H2 O) between pre and peak ventilatory pressure readings is averaged for three control animals and five drug treated animals. The percent inhibition is calculated from the following formula: (Control-Drug Treated/Control)×100. For determination of oral activity, spontaneously breathing animals are pretreated orally for 2 hours (at 100 mg/kg) prior to challange with leukitriene E4.

LD50 = details: in vivo, species not given
[5] = time after exposure not given, leukotriene E4 challenge
[6] = 2 hours prior to leukotriene E4 challenge
[7] = determined 30 seconds after exposure to test drug (footnote a)

SMILES	Guinea Pig Bronchoconstriction, In Vivo Aerosol IC50 (%) [1, 5]	Aerosol Duration of Action [2]	IC50 [3]	Guinea Pig Bronchoconstriction, In Vivo % I, 10 mg/kg I.V. [4]	inhibition in vivo at 100 mg/kg [4, 6]	oral activity in guinea pig bronchoconstriction (in words) ([4]; oral, 100 mg/kg, 2 hours prior to leukotriene E4 challenge)	Guinea Pig Bronchoconstriction, In Vivo Aerosol IC50 (%) [1, 7]	LD50 (LD50; ip, read-out: LD50 i.p.)	LD50 (LD50; po, read-out: LD50 p.o.)	Guinea Pig Bronchoconstriction, In Vivo Aerosol IC50 (%) ([1]; determined 15 minutes after exposure to test drug (footnote b))
CCCc1c(OCCCCCOc2c(C(C)=O)ccc(OCCCC(=O)O)c2CCC)ccc(C(C)=O)c1O [4-[4-acetyl-3-[[5-(4-acetyl-3-hydroxy-2-propylphenoxy)pentyl]oxy]-2-propylphenoxy]butanoic acid]	0.01%	46 min	1000 nM	92%	84%					
CCCc1c(OCCCOCCCOc2c(C(C)=O)ccc(OCCCC(=O)O)c2CCC)ccc(C(C)=O)c1O [4-[4-Acetyl-3-[3-[3-(4-acetyl-3-hydroxy-2-propylphenoxy)propoxy]propoxy]-2-propylphenoxy]butanoic acid]	0.008%	37 min	200 nM	93%	56%					
CCCc1c(OCC(O)COc2ccc3c(=O)cc(C(=O)O)oc3c2CCC)ccc(C(C)=O)c1O (stereo not shown) [7-[3-(4-Acetyl-3-hydroxy-2-propylphenoxy)-2-hydroxypropoxy]-4-oxo-8-propyl-4H-1-benzopyran-2-carboxylic acid, reference compound]				98%		orally inactive				
CCCc1c(OCCOCCOCCOCCOc2c(C(C)=O)ccc(OCC(=O)O)c2CCC)ccc(C(C)=O)c1O [[4-acetyl-3-[2-[2-[2-[2-(4-acetyl-3-hydroxy-2-propylphenoxy)ethoxy]ethoxy]ethoxy]ethoxy]-2-propylphenoxy]acetic acid]	0.04%	73 min	300 nM	90%						
CCCc1c(OCCCOc2c(C(C)=O)ccc(OCCCC(=O)O)c2CCC)ccc(C(C)=O)c1O [4-[4-acetyl-3-[3-(4-acetyl-3-hydroxy-2-propylphenoxy)propoxy]-2-propylphenoxy]butanoic acid]			200 nM	97%	81%		0.44%	650 mg/kg	770 mg/kg	
CCCc1c(OCCCOc2c(C(C)=O)ccc(OCC(=O)O)c2CCC)ccc(C(C)=O)c1O [[4-acetyl-3-[3-(4-acetyl-3-hydroxy-2-propylphenoxy)propoxy]-2-propylphenoxy]acetic acid]		90 min	2000 nM	95%	52%		0.07%	90 mg/kg	500 mg/kg	
CCCc1c(OCCCCCOc2c(C(C)=O)ccc(OCC(=O)O)c2CCC)ccc(C(C)=O)c1O [[4-acetyl-3-[5-(4-acetyl-3-hydroxy-2-propylphenoxy)pentyloxy]-2-propylphenoxy]acetic acid]	0.02%	55 min	100 nM	91%	51%			140 mg/kg	900 mg/kg	
CCCc1c(OCCOCCOc2c(C(C)=O)ccc(OCC(=O)O)c2CCC)ccc(C(C)=O)c1O [[4-acetyl-3-[2-[2-(4-acetyl-3-hydroxy-2-propylphenoxy)ethoxy]ethoxy]-2-propylphenoxy]acetic acid]	0.02%	14 min	200 nM	86%	26%			170 mg/kg	800 mg/kg	
CCCc1c(OCC(O)COc2c(C(C)=O)ccc(OCC(=O)O)c2CCC)ccc(C(C)=O)c1O (racemic) [racemic [4-acetyl-3-[3-(4-acetyl-3-hydroxy-2-propylphenoxy)-2-hydroxypropoxy]-2-propylphenoxy]acetic acid]		72 min	1000 nM	89%	29%					0.1%
CCCc1c(OCCOCCOCCOc2c(C(C)=O)ccc(OCC(=O)O)c2CCC)ccc(C(C)=O)c1O [[4-acetyl-3-[2-[2-[2-(4-acetyl-3-hydroxy-2-propylphenoxy)ethoxy]ethoxy]ethoxy]-2-propylphenoxy]acetic acid]	0.04%	42 min	1000 nM	85%	4%			120 mg/kg	650 mg/kg	

From patent publication US4782176A, “Phenoxycarboxylic acids” (Hoffmann-La Roche Inc., priority 1983, dated 1988)
